This note sets out measurements from patent US10450316B2, “Certain protein kinase inhibitor” (Chongqing Fochon Pharmaceutical Co., Ltd., priority 2015, dated 2019).

Molecules are shown by their SMILES.

The test system of test [1] is COLO205 xenograft tumors. The test is described as follows: Tumor growth inhibition in COLO205 xenograft tumors. The test is classed as in vivo. The following applies: 30 mg/kg; for Average Tumor Volume D0: D0, in mm³; for Average Tumor Volume D21: D21, in mm³. The method, then:
COLO205 cells were cultured with RPMI-1640 medium containing 10% fetal bovine serum (FBS) at 37° C. in 5% CO2 incubator. Logarithmic growth phase cells were collected. COLO205 cells (5×10^6 in 200 μL PBS) were implanted subcutaneously into the left flank region, and tumor growth was monitored. Tumor volume (V) was estimated from the length (l) and width (w) of the tumor using the following formula: V=1/2×l×w^2. Treatment started when average tumor size was 100-150 mm^3. Measuring subcutaneous tumor volume 2 to 3 times every week. Drug efficacy was assessed as Tumor Growth Inhibition (TGI) and Tumor increment rate T/C (%). TGI was defined as (1−T/C)×100%, wherein T/C (%) presented the ratio of the change in mean tumor volume of the treated group and of the control group.

The test system of test [2] is BE(2)-C cell. Description: Cell proliferation assay (MTS) in BE(2)-C cells. In kind it is cell-based. The following applies: Homo sapiens, inhibition of BE(2)-C cell proliferation, 48 h. An outline of the steps:
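BE(2)-C cells (3000/well, DMEM + 10% FBS) were treated for 48 h at 37 °C with compound at 1.5–10000 nM in nine concentrations. Viability was measured by MTS (2 h, stopped with SDS) at 490/650 nm, and IC50 was calculated from the dose-response.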

Test [3] deals with T1, CDK6/cyclin D1 (Homo sapiens, UniProt Q00534).
T1 construct: purchased Invitrogen PR8422B
Description: CDK kinase inhibition assay (33P-ATP HotSpot filter binding). In kind it is biochemical. The following applies: substrate RB Protein, 10 μM ATP. The method, then:
(§1) Testing compounds were dissolved in 100% DMSO to specific concentration. Compounds were tested in 10-dose mode with 3-fold serial dilution starting at 100 μM. The serial dilution was conducted by epMotion 5070 in DMSO.
(§2) Each substrate was prepared in freshly prepared Reaction Buffer (20 mM Hepes (pH 7.5), 10 mM MgCl2, 1 mM EGTA, 0.02% Brij35, 0.02 mg/ml BSA, 0.1 mM Na3VO4, 2 mM DTT, 1% DMSO). Each kinase was delivered into the substrate solution and the solution was gently mixed. 0.05 μL Compounds were delivered into 5 μL kinase reaction mixture in a 384 well plate by Acoustic technology (Echo550; nanoliter range), and the mixture was incubated for 20 min at room temperature. 0.01 μL of 5 mM ATP with ^33P-ATP (PerkinElmer, Cat# NEG602H001MC, Specific activity […]) was delivered into the reaction mixture to initiate the reaction, and the final concentration of ATP in the mixture was 10 μM. The resulted solutions were incubated for 2 hours at room temperature, the radioactivity incorporated is determined by the proprietary “HotSpot” platform, which is a miniaturized filter-binding method (using this paper as reference: Anastassiadis et al, 2011 Nature Biotech) IC50 value of each compound was generated using GraphPad Prism software.
(§3) Select compounds prepared as described above were assayed according to the biological procedures described herein.

For test [4], the target named is T2, CDK2/cyclin A (Homo sapiens, UniProt P24941).
T2 construct: purchased Invitrogen PR4448B
Described as above. In kind it is biochemical. The following applies: substrate Histone H1, 10 μM ATP. Here is the method:
as §1, §2, §3

The target in test [5] is T3, CDK4/cyclin D1 (Homo sapiens, UniProt P11802).
T3 construct: purchased Invitrogen PV4436
The description is as above. The following applies: substrate RB Protein, 10 μM ATP. The test is classed as biochemical. The method, then:
as §1, §2, §3

Test [6] addresses T4, CDK1/cyclin B (Homo sapiens, UniProt P06493).
T4 construct: purchased Invitrogen PR4768C
Described as above. The test is classed as biochemical. As to conditions: substrate Histone H1, 10 μM ATP. Here is the method:
as §1, §2, §3

Usually IC50 stands for the concentration that inhibits the measured activity by half. A higher IC50 goes with weaker potency.

T3 sequence (P11802 whole entry): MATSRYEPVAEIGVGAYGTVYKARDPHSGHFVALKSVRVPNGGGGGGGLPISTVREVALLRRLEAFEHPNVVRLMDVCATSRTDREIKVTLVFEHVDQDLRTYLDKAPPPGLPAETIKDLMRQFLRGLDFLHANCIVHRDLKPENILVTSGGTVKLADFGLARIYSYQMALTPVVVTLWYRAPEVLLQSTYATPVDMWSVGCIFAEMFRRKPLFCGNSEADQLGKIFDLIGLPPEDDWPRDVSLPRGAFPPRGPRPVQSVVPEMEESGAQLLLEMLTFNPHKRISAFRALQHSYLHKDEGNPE
T3 sequence (P24385 whole entry partner): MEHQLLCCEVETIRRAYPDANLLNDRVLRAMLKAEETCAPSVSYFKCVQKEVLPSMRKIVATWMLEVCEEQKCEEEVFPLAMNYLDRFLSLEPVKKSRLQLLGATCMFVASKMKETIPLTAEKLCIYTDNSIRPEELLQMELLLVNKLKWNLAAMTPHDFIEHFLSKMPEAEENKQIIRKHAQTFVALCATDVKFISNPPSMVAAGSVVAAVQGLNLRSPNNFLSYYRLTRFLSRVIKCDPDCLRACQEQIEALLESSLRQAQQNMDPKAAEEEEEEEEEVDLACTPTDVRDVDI
T4 sequence (P06493 whole entry): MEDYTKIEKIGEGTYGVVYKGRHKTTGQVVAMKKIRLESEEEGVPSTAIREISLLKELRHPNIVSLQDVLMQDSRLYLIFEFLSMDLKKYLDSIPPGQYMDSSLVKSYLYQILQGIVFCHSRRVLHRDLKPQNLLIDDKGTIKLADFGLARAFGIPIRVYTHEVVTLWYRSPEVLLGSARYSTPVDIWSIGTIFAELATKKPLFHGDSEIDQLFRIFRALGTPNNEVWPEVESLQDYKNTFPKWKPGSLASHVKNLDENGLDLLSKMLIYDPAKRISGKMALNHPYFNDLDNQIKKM
T4 sequence (P14635 whole entry partner): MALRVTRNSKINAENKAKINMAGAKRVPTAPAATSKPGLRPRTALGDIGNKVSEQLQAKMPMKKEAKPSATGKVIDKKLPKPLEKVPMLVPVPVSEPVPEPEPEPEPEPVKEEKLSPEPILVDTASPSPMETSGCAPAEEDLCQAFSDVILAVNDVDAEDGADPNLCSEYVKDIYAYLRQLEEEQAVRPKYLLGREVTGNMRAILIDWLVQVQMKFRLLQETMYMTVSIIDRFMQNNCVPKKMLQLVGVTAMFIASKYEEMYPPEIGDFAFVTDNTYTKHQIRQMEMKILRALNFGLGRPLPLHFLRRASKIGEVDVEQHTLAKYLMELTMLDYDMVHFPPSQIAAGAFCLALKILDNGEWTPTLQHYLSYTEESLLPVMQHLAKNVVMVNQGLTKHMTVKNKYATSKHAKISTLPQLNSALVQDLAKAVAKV
T1 sequence (Q00534 whole entry): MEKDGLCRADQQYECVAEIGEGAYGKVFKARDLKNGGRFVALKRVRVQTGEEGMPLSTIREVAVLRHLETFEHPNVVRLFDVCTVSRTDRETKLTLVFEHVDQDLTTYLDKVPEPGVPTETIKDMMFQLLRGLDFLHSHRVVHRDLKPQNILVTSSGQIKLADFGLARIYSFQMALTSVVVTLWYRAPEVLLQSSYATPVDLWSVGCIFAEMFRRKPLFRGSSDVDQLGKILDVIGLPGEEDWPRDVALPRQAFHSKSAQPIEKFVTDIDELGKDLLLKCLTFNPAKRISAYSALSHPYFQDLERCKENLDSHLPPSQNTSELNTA
T1 sequence (P24385 whole entry partner): as the sequence (P24385 whole entry partner) above

With `CN1CCN(Cc2ccc(Nc3ncc(F)c(-c4cc(F)c5nc6n(c5c4)[C@H](C(F)F)CC6)n3)nc2)CC1` [Example 11, (S)-4-(1-(difluoromethyl)-5-fluoro-2,3-dihydro-1H-benzo[d]pyrrolo[1,2-a]imidazol-7-yl)-5-fluoro-N-(5-((4-methylpiperazin-1-yl)methyl)pyridin-2-yl)pyrimidin-2-amine], in test [1], the “Average Tumor Volume D0” value stood at 110 ± 3.2, the “T/C % D21” value came to 28%, the “TGI % D21” value worked out at 72% and the “Average Tumor Volume D21” value was determined as 570 ± 57. The molecule further gave a 50% inhibitory concentration (IC50) in test [2] of 10 to 100 nM.
Regarding `CCN1CCN(Cc2ccc(Nc3ncc(F)c(-c4cc(F)c5nc6n(c5c4)[C@H](C(F)F)CC6)n3)nc2)CC1` [Example 12, (S)-4-(1-(difluoromethyl)-5-fluoro-2,3-dihydro-1H-benzo[d]pyrrolo[1,2-a]imidazol-7-yl)-N-(5-((4-ethylpiperazin-1-yl)methyl)pyridin-2-yl)-5-fluoropyrimidin-2-amine], the “Average Tumor Volume D0” value in test [1] came to 113 ± 3.4. For the same molecule, in test [1], the “T/C % D21” value stood at 29%. Moreover, in test [1], the “TGI % D21” value is given as 71%. Besides, the “Average Tumor Volume D21” value in test [1] amounted to 584 ± 86. Further, the half-maximal inhibitory concentration (IC50) in test [2] is 10 to 100 nM; in test [3] it was under 5 nM; in test [4], 50.5 nM; in test [5], under 5 nM; in test [6], 403 nM.
For the molecule `CN1CCN(c2ccc(Nc3ncc(F)c(-c4cc(F)c5nc6n(c5c4)[C@H](C(F)F)CC6)n3)nc2)CC1` [Example 39, (S)-4-(1-(difluoromethyl)-5-fluoro-2,3-dihydro-1H-benzo[d]pyrrolo[1,2-a]imidazol-7-yl)-5-fluoro-N-(5-(4-methylpiperazin-1-yl)pyridin-2-yl)pyrimidin-2-amine], the IC50 is over 100 nM in test [2]; under 5 nM in test [3]; 19.2 nM in test [4]; under 5 nM in test [5]; 50.5 nM in test [6].
